The test system of this series is human-derived chondrocytes (C28/12, human chondrocyte cell line). The series can be described thus: Cytotoxicity by CCK-8 assay. Format: cell-based. The settings on record: C28/12 cells, different concentrations, 3 days, absorbance 450 nm. How it is done: The cytotoxicity of Peptide-1 or Peptide-2 upon addition to human-derived chondrocytes (C28/12, human chondrocyte cell line) was analyzed using a CCK-8 assay.
Specifically, human-derived chondrocytes were seeded in a 96-well plate at a density of 3×10^3 cells/well and cultured in DMEM medium (cat. 11995-065, Gibco) for 24 hours. […] Meanwhile, as a positive control group, one to which TGFβ1 (20 ng/ml) was added was used.

Each structure is given as a SMILES string. Peptide text beside a SMILES is read from it.

Data on two molecules can be found in US20260200975A1, “PEPTIDE FOR CARTILAGE REGENERATION, AND USES THEREOF” (CAREGEN CO., LTD., priority 2022, published 2026).

As for `N[C@@H](CCC(=O)O)C(=O)N[C@@H](Cc1ccc(O)cc1)C(=O)N[C@@H](Cc1ccccc1)C(=O)N[C@@H](Cc1c[nH]c2ccccc12)C(=O)O` [Peptide-1, Glu(E)-Tyr(Y)-Phe(F)-Trp(W)] (H-EYFW-OH), the “toxicity in human-derived chondrocytes (CCK-8 activity)” value was “did not exhibit toxicity”.

`CC(C)C[C@H](NC(=O)[C@@H](NC(=O)[C@@H](N)CCCNC(=N)N)[C@@H](C)O)C(=O)O` [Peptide-2, Arg(R)-Thr(T)-Leu(L)] (H-Arg-Thr-Leu-OH): the “toxicity in human-derived chondrocytes (CCK-8 activity)” value is reported as “did not exhibit toxicity”.
